These results are taken from patent publication US12637480B2, “Heterocyclic compounds as sting modulators” (BEIGENE, LTD., priority 2020, dated 2026).

Structures can show the parent of a compound that is named as a salt.

Assay [1] concerns the target human STING (hSTING) HAQ variant in THP1-Dual HAQ Cells (Homo sapiens, UniProt Q86WV6, G230A/H232R/R293Q/R71H). Kind of assay: STING cellular assay in THP1-Dual HAQ cells (ISG54 Lucia luciferase reporter, QUANTI-Luc). A general note: Reporter assays use an easily measured gene product as a stand-in for the process of interest.
The target in assay [2] is human STING (hSTING) R232 variant in THP1-Dual KI-hSTING-R232 Cells (Homo sapiens, UniProt Q86WV6, H232R). The assay can be described thus: STING cellular assay in THP1-Dual KI-hSTING-R232 cells (ISG54 Lucia luciferase reporter, QUANTI-Luc).
Chain of human STING (hSTING) R232 variant in THP1-Dual KI-hSTING-R232 Cells (Q86WV6 whole entry H232R): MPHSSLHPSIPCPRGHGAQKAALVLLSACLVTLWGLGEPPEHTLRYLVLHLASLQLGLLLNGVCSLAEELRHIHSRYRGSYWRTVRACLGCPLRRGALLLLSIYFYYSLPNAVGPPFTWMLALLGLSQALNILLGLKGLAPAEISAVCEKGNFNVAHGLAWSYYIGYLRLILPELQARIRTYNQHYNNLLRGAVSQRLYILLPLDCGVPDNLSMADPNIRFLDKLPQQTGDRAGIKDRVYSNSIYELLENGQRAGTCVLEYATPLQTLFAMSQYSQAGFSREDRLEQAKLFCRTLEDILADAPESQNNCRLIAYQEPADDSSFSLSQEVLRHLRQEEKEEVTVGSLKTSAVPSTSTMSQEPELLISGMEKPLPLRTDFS

Chain of human STING (hSTING) HAQ variant in THP1-Dual HAQ Cells (Q86WV6 whole entry R71H/G230A/H232R/R293Q): as the sequence (Q86WV6 whole entry H232R) above, with R71H, G230A, R293Q counted along it

With `CCn1nc(C)cc1C(=O)Nc1nc2cc(C(N)=O)cnc2n1C/C=C/Cn1c2nc(-c3cc(C)nn3CC)ncc2c2cc(C(N)=O)cc(OCCCCN(C)C(=O)OC(C)(C)C)c21` [Example 3-AA, tert-butyl (E)-(4-((6-carbamoyl-9-(4-(6-carbamoyl-2-(1-ethyl-3-methyl-1H-pyrazole-5-carboxamido)-3H-imidazo[4,5-b]pyridin-3-yl)but-2-en-1-yl)-2-(1-ethyl-3-methyl-1H-pyrazol-5-yl)-9H-pyrimido[4,5-b]indol-8-yl)oxy)butyl)(methyl)carbamate], the EC50 (commonly the concentration at which the effect is half-maximal) is 4.1 nM in assay [1] and 0.52 nM in assay [2].

Consider `CCn1nc(C)cc1C(=O)Nc1nc2cc(C(N)=O)cnc2n1C/C=C/Cn1c2nc(-c3cc(C)nn3CC)ncc2c2cc(C(N)=O)cc(OCCCN3CCN(C(=O)OC(C)(C)C)CC3)c21` [Example 2-AA, tert-butyl (E)-4-(3-((6-carbamoyl-9-(4-(6-carbamoyl-2-(1-ethyl-3-methyl-1H-pyrazole-5-carboxamido)-3H-imidazo[4,5-b]pyridin-3-yl)but-2-en-1-yl)-2-(1-ethyl-3-methyl-1H-pyrazol-5-yl)-9H-pyrimido[4,5-b]indol-8-yl)oxy)propyl)piperazine-1-carboxylate], for which the figures for the EC50 in assay [1] and in assay [2] were 2.4 nM and 0.46 nM, respectively.

For `CCn1nc(C)cc1C(=O)Nc1nc2cc(C(N)=O)cnc2n1C/C=C/Cn1c2nc(-c3cc(C)nn3CC)ncc2c2cc(C(N)=O)cc(OCCCC3CNC3)c21` [Example 5-AB, (E)-8-(3-(azetidin-3-yl)propoxy)-9-(4-(6-carbamoyl-2-(1-ethyl-3-methyl-1H-pyrazole-5-carboxamido)-3H-imidazo[4,5-b]pyridin-3-yl)but-2-en-1-yl)-2-(1-ethyl-3-methyl-1H-pyrazol-5-yl)-9H-pyrimido[4,5-b]indole-6-carboxamide], the values for the concentration giving a half-maximal response (EC50) in assay [1] and in assay [2] were 862 nM and 27 nM, respectively.

Consider `CCn1nc(C)cc1C(=O)Nc1nc2cc(C(N)=O)cnc2n1C/C=C/Cn1c2nc(-c3cc(C)nn3CC)ncc2c2cc(C(N)=O)cc(OCCCC3CCN(C(=O)OC(C)(C)C)CC3)c21` [Example 7-AA, tert-butyl (E)-4-(3-((6-carbamoyl-9-(4-(6-carbamoyl-2-(1-ethyl-3-methyl-1H-pyrazole-5-carboxamido)-3H-imidazo[4,5-b]pyridin-3-yl)but-2-en-1-yl)-2-(1-ethyl-3-methyl-1H-pyrazol-5-yl)-9H-pyrimido[4,5-b]indol-8-yl)oxy)propyl)piperidine-1-carboxylate], for which the results for the EC50 in assay [1] and in assay [2] were 28 nM and 1 nM, respectively.

As to `CCn1nc(C)cc1C(=O)Nc1nc2cc(C(N)=O)cnc2n1C/C=C/Cn1c2nc(-c3cc(C)nn3CC)ncc2c2cc(C(N)=O)cc(OCCCN3CCNCC3)c21` [Example 2-AB-HCl, (E)-9-(4-(6-carbamoyl-2-(1-ethyl-3-methyl-1H-pyrazole-5-carboxamido)-3H-imidazo[4,5-b]pyridin-3-yl)but-2-en-1-yl)-2-(1-ethyl-3-methyl-1H-pyrazol-5-yl)-8-(3-(piperazin-1-yl)propoxy)-9H-pyrimido[4,5-b]indole-6-carboxamide hydrochloride], the EC50 in assay [1] is 565 nM; in assay [2] it was 11 nM.

Regarding `CCn1nc(C)cc1C(=O)Nc1nc2cc(C(N)=O)cnc2n1C/C=C/Cn1c2nc(-c3cc(C)nn3CC)ncc2c2cc(C(N)=O)cc(OCCC3CN(C(=O)OC(C)(C)C)C3)c21` [Example 4-AA, tert-butyl (E)-3-(2-((6-carbamoyl-9-(4-(6-carbamoyl-2-(1-ethyl-3-methyl-1H-pyrazole-5-carboxamido)-3H-imidazo[4,5-b]pyridin-3-yl)but-2-en-1-yl)-2-(1-ethyl-3-methyl-1H-pyrazol-5-yl)-9H-pyrimido[4,5-b]indol-8-yl)oxy)ethyl)azetidine-1-carboxylate], the EC50 in assay [1] was 4.8 nM; in assay [2] it was 0.78 nM.

With `CCn1nc(C)cc1C(=O)Nc1nc2cc(C(N)=O)cnc2n1C/C=C/Cn1c2nc(-c3cc(C)nn3CC)ncc2c2cc(C(N)=O)cc(OCCCC3CCNCC3)c21` [Example 7-AB], the EC50 in assay [1] came to 305 nM; in assay [2], 16 nM.

For the compound `CCn1nc(C)cc1C(=O)Nc1nc2cc(C(N)=O)cnc2n1C/C=C/Cn1c2nc(-c3cc(C)nn3CC)ncc2c2cc(C(N)=O)cc(OCCCCNC)c21` [Example 3-AB-HCl, (E)-9-(4-(6-carbamoyl-2-(1-ethyl-3-methyl-1H-pyrazole-5-carboxamido)-3H-imidazo[4,5-b]pyridin-3-yl)but-2-en-1-yl)-2-(1-ethyl-3-methyl-1H-pyrazol-5-yl)-8-(4-(methylamino)butoxy)-9H-pyrimido[4,5-b]indole-6-carboxamide hydrochloride], the EC50 in assay [1] is 640 nM; in assay [2] it was 23 nM.

Take `CCn1nc(C)cc1C(=O)Nc1nc2cc(C(N)=O)cnc2n1C/C=C/Cn1c2nc(-c3cc(C)nn3CC)ncc2c2cc(C(N)=O)cc(OCCC3CNC3)c21` [Example 4-AB, (E)-8-(2-(azetidin-3-yl)ethoxy)-9-(4-(6-carbamoyl-2-(1-ethyl-3-methyl-1H-pyrazole-5-carboxamido)-3H-imidazo[4,5-b]pyridin-3-yl)but-2-en-1-yl)-2-(1-ethyl-3-methyl-1H-pyrazol-5-yl)-9H-pyrimido[4,5-b]indole-6-carboxamide]: the values for the EC50 in assay [1] and in assay [2] were 1040 nM and 30 nM, respectively.

For the compound `CCn1nc(C)cc1C(=O)Nc1nc2cc(C(N)=O)cnc2n1C/C=C/Cn1c2nc(-c3cc(C)nn3CC)ncc2c2cc(C(N)=O)cc(OCCC3CCN(C(=O)OC(C)(C)C)CC3)c21` [Example-6-AA, tert-butyl (E)-4-(2-((6-carbamoyl-9-(4-(6-carbamoyl-2-(1-ethyl-3-methyl-1H-pyrazole-5-carboxamido)-3H-imidazo[4,5-b]pyridin-3-yl)but-2-en-1-yl)-2-(1-ethyl-3-methyl-1H-pyrazol-5-yl)-9H-pyrimido[4,5-b]indol-8-yl)oxy)ethyl)piperidin-1-carboxylate], the EC50 stood at 49 nM in assay [1] and 0.9 nM in assay [2].

On to `CCn1nc(C)cc1C(=O)Nc1nc2cc(C(N)=O)cnc2n1C/C=C/Cn1c2nc(-c3cc(C)nn3CC)ncc2c2cc(C(N)=O)cc(OCCCN(C)C(=O)CON)c21` [Example 1-AC], for which the EC50 turned out to be 34 nM in assay [1] and 3.6 nM in assay [2].

As for `CCn1nc(C)cc1C(=O)Nc1nc2cc(C(N)=O)cnc2n1C/C=C/Cn1c2nc(-c3cc(C)nn3CC)ncc2c2cc(C(N)=O)cc(OCCCN(C)C(=O)OC(C)(C)C)c21` [Example 1-AA], the concentration for a half-maximal effect (EC50) in assay [1] was found to be 3.4 nM; in assay [2], 0.58 nM.

Consider `CCn1nc(C)cc1C(=O)Nc1nc2cc(C(N)=O)cnc2n1C/C=C/Cn1c2nc(-c3cc(C)nn3CC)ncc2c2cc(C(N)=O)cc(OCCCN3CCN(C(=O)CON)CC3)c21` [Example 2-AC, (E)-8-(3-(4-(2-(aminooxy)acetyl)piperazin-1-yl)propoxy)-9-(4-(6-carbamoyl-2-(1-ethyl-3-methyl-1H-pyrazole-5-carboxamido)-3H-imidazo[4,5-b]pyridin-3-yl)but-2-en-1-yl)-2-(1-ethyl-3-methyl-1H-pyrazol-5-yl)-9H-pyrimido[4,5-b]indole-6-carboxamide], for which the EC50 came to 118 nM in assay [1] and 10 nM in assay [2].

In the case of `CCn1nc(C)cc1C(=O)Nc1nc2cc(C(N)=O)cnc2n1C/C=C/Cn1c2nc(-c3cc(C)nn3CC)ncc2c2cc(C(N)=O)cc(OCCC3CCNCC3)c21` [Example 6-AB], the EC50 in assay [1] worked out at 674 nM; in assay [2] it was 29 nM.

For the compound `CCn1nc(C)cc1C(=O)Nc1nc2cc(C(N)=O)cnc2n1C/C=C/Cn1c2nc(-c3cc(C)nn3CC)ncc2c2cc(C(N)=O)cc(OCCCC3CN(C(=O)OC(C)(C)C)C3)c21` [Example 5-AA, tert-butyl (E)-3-(3-((6-carbamoyl-9-(4-(6-carbamoyl-2-(1-ethyl-3-methyl-1H-pyrazole-5-carboxamido)-3H-imidazo[4,5-b]pyridin-3-yl)but-2-en-1-yl)-2-(1-ethyl-3-methyl-1H-pyrazol-5-yl)-9H-pyrimido[4,5-b]indol-8-yl)oxy)propyl)azetidine-1-carboxylate], the EC50 in assay [1] was 39 nM; in assay [2], 1.6 nM.

As to `CCn1nc(C)cc1C(=O)Nc1nc2cc(C(N)=O)cnc2n1C/C=C/Cn1c2nc(-c3cc(C)nn3CC)ncc2c2cc(C(N)=O)cc(OCCCNC)c21` [Example 1-AB, (E)-9-(4-(6-carbamoyl-2-(1-ethyl-3-methyl-1H-pyrazole-5-carboxamido)-3H-imidazo[4,5-b]pyridin-3-yl)but-2-en-1-yl)-2-(1-ethyl-3-methyl-1H-pyrazol-5-yl)-8-(3-(methylamino)propoxy)-9H-pyrimido[4,5-b]indole-6-carboxamide], the values for the EC50 in assay [1] and in assay [2] were 355 nM and 6.2 nM, respectively.
